Measured values from PubChem BioAssay (NCI).
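Five concentrations, 48 hours, 96-well plates. Definition used: TGI = concentration required for complete inhibition of growth.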

Columns and labels:
Test in all cases: NCI anticancer screen, dose series, 48 h
MDA-MB-435 = test system: MDA-MB-435
HCT-15 colon = test system: HCT-15 colon
RPMI-8226 leukemia = test system: RPMI-8226 leukemia
A498 renal = test system: A498 renal
MOLT-4 leukemia = test system: MOLT-4 leukemia
EKVX NSCLC = test system: EKVX NSCLC
MALME-3M melanoma = test system: MALME-3M melanoma
M14 melanoma = test system: M14 melanoma
UACC-62 melanoma = test system: UACC-62 melanoma
COLO 205 colon = test system: COLO 205 colon
786-0 renal = test system: 786-0 renal
NCI-H226 lung = test system: NCI-H226 lung
HCT-116 colon = test system: HCT-116 colon
OVCAR-4 ovarian = test system: OVCAR-4 ovarian
ACHN renal = test system: ACHN renal
BT-549 breast = test system: BT-549 breast
U251 CNS = test system: U251 CNS
CAKI-1 renal = test system: CAKI-1 renal
NCI-H522 lung = test system: NCI-H522 lung
HS 578T breast = test system: HS 578T breast

Compound | TGI (MDA-MB-435) | TGI (HCT-15 colon) | TGI (RPMI-8226 leukemia) | TGI (A498 renal) | TGI (MOLT-4 leukemia) | TGI (EKVX NSCLC) | TGI (MALME-3M melanoma) | TGI (M14 melanoma) | TGI (UACC-62 melanoma) | TGI (COLO 205 colon) | TGI (786-0 renal) | TGI (NCI-H226 lung) | TGI (HCT-116 colon) | TGI (OVCAR-4 ovarian) | TGI (ACHN renal) | TGI (BT-549 breast) | TGI (U251 CNS) | TGI (CAKI-1 renal) | TGI (NCI-H522 lung) | TGI (HS 578T breast)
C[C@]12CCC(=O)C=C1CC[C@@H]1[C@@H]2CC[C@]2(C)C(=O)/C(=C\c3ccccc3)C[C@@H]12 | > 100 µM | > 100 µM | > 26.1 µM | 42.4 µM | > 57 µM | > 100 µM | 73.9 µM | > 66.2 µM | > 66.2 µM | 55.9 µM | > 66.8 µM | 33.5 µM | > 48.7 µM | > 100 µM | > 100 µM | 72.6 µM | > 69.4 µM | > 100 µM | – | –
O=C(O)CCCC#CCCCC(=O)O | > 100 µM | > 100 µM | – | > 100 µM | – | > 100 µM | > 100 µM | > 100 µM | > 100 µM | > 100 µM | > 100 µM | – | > 100 µM | > 100 µM | > 100 µM | – | > 100 µM | > 100 µM | > 100 µM | > 100 µM
[O-][n+]1onc2c1-c1nonc1CC2 | > 100 µM | > 100 µM | > 100 µM | 83.6 µM | > 100 µM | 81.6 µM | 54 µM | 89.8 µM | > 100 µM | > 100 µM | > 100 µM | 76.3 µM | 46.2 µM | 74.1 µM | 88.2 µM | – | > 100 µM | > 100 µM | 95.1 µM | 66.8 µM
Cn1c(C2CC(C)(C)c3c2c2ccccc2n3C)cc2ccccc21 (stereo not drawn) | – | > 304 µM | > 304 µM | – | > 304 µM | > 304 µM | > 304 µM | – | > 304 µM | > 304 µM | > 304 µM | > 304 µM | > 304 µM | – | > 304 µM | – | > 304 µM | > 304 µM | > 304 µM | –
Oc1ccc2c3c1OC1c4[nH]c5c(c4CC4(O)C(C2)N(CC2CC2)CC[C@]314)CC1(O)C2Cc3ccc(O)c4c3[C@@]1(CCN2CC1CC1)C5O4 (stereo partly drawn) | 37.6 µM | > 100 µM | 60.8 µM | 32.4 µM | 53.9 µM | 99.3 µM | 31.6 µM | 32 µM | 43.7 µM | 35.6 µM | 46 µM | 88.7 µM | 33 µM | 90.5 µM | > 100 µM | > 100 µM | 34.6 µM | > 100 µM | 49.3 µM | –
Clc1ccc(N=Cc2cc3cc(Br)ccc3nc2Cl)cc1 | > 50 µM | > 50 µM | 38.4 µM | – | > 50 µM | > 50 µM | > 50 µM | > 50 µM | – | > 50 µM | > 50 µM | > 50 µM | > 50 µM | 24.2 µM | – | > 50 µM | – | > 50 µM | > 50 µM | –
COc1cc(OC)nc(NC(=O)NS(=O)(=O)c2cccc3ncn(C)c(=O)c23)n1 | > 100 µM | > 100 µM | > 100 µM | > 100 µM | > 100 µM | > 100 µM | > 100 µM | > 100 µM | > 100 µM | > 100 µM | > 100 µM | > 100 µM | > 100 µM | > 100 µM | > 100 µM | – | > 100 µM | > 100 µM | > 100 µM | > 100 µM
COc1ccc(C2C3=C(CCCC3=O)N(c3ccccc3)C3=C2C(=O)CCC3)cc1 | – | > 100 µM | > 100 µM | > 100 µM | > 100 µM | > 100 µM | – | > 100 µM | > 100 µM | – | > 100 µM | > 100 µM | – | > 100 µM | > 100 µM | > 100 µM | > 100 µM | > 100 µM | – | > 100 µM
CC1(C)CC[C@]2(C(=O)O)CC[C@]3(C)C(=CC[C@@H]4[C@@]5(C)CC[C@@H]6OC(C)(C)OC[C@@]6(C)[C@@H]5CC[C@]43C)[C@H]2C1 | 25.6 µM | 13.9 µM | 66 µM | 51.7 µM | 34.3 µM | 19.4 µM | 25.6 µM | 33.7 µM | 25.4 µM | 28.8 µM | 24 µM | – | 20.9 µM | > 100 µM | 15.7 µM | – | 20.4 µM | – | 29 µM | –
Cc1c(C)c2ccc(O)cc2[nH]c1=O | > 100 µM | > 100 µM | > 100 µM | > 100 µM | > 100 µM | > 100 µM | – | > 100 µM | > 100 µM | > 100 µM | > 100 µM | > 100 µM | > 100 µM | > 100 µM | > 100 µM | > 100 µM | > 100 µM | > 100 µM | – | –
CCCN1CN(C(C(=O)N[C@@H]2C(=O)N3C(C(=O)O)=C(C)CSC23)c2ccccc2)CSC1=S (stereo partly drawn) | – | > 100 µM | > 100 µM | > 100 µM | > 100 µM | > 100 µM | > 100 µM | > 100 µM | > 100 µM | > 100 µM | > 100 µM | – | > 100 µM | > 100 µM | > 100 µM | – | > 100 µM | – | > 100 µM | –
O=C(Nc1ccc(F)cc1)c1cc2ccc(O)cc2oc1=Nc1cccc(F)c1 | > 100 µM | 92.2 µM | > 100 µM | > 100 µM | > 100 µM | 64.4 µM | > 100 µM | – | > 100 µM | > 100 µM | > 100 µM | – | > 100 µM | > 100 µM | > 100 µM | 75.4 µM | > 100 µM | > 100 µM | 97.5 µM | –
CC(C)(Cc1ccccc1)Cc1cc(O)ccc1O | 49.2 µM | 39.8 µM | – | 47.6 µM | 49.5 µM | 65.8 µM | 33.2 µM | 37.4 µM | 61.8 µM | 39.1 µM | 29 µM | 97.8 µM | 31.6 µM | 91.9 µM | 66.1 µM | 74.1 µM | 32.2 µM | 35.1 µM | 17.1 µM | –
N.N.N.N.O=S(=O)([O-])[O-].[Co+3].[OH3+].[OH3+] | – | > 100 µM | > 100 µM | > 100 µM | > 100 µM | > 100 µM | > 100 µM | > 100 µM | > 100 µM | > 100 µM | > 100 µM | – | > 100 µM | > 100 µM | > 100 µM | – | > 100 µM | – | > 100 µM | –
